Results as given in US20020028469A1, “Method of defining genus of chemical compound and method of designing molecules” (priority 1997, published 2002).

What was measured:
PDEIV = PDEIV inhibition (IC50); assay type: biochemical; conditions: PDEIV inhibitory activity
[1] = Solubility in aqueous solution, noted during coupling; assay type: physicochemical; conditions: methanol used as solvent instead
Method: 1: 6 mg Compound C was dissolved in 2 ml methanol in 50 ml centrifuge tube (methanol was used because Compound C is insoluble in aqueous solution).

Row | IC50 (PDEIV) [µM] | solubility in aqueous solution [1] | SMILES
1 | 0.41 | – | CCNc1ncn(Cc2ccc(OC)c(OC3CCCC3)c2)c2nc(C(C)C)nc1-2 [Compound A, 3-(3-cyclopentyloxy-4-methoxybenzyl)-6-ethylamino-8-isopropyl-purine]
2 | 0.8 | insoluble | COc1ccc(Cn2cncc3nc(C(C)C)nc2-3)cc1OC1CCCC1 [Compound C, 3-(3-cyclopentyloxy-4-methoxybenzyl)-8-isopropyl-3H-purine]
3 | 3 | – | COc1ccc(C2CNC(=O)C2)cc1OC1CCCC1 (stereo not shown) [rolipram, reference compound]
